Molecular target: T1, KCC2 (Monodelphis domestica, UniProt F6WQ48)
T1 construct: gene SLC12A5; N-terminal His and FLAG tag
T1 sequence (F6WQ48 1-1115): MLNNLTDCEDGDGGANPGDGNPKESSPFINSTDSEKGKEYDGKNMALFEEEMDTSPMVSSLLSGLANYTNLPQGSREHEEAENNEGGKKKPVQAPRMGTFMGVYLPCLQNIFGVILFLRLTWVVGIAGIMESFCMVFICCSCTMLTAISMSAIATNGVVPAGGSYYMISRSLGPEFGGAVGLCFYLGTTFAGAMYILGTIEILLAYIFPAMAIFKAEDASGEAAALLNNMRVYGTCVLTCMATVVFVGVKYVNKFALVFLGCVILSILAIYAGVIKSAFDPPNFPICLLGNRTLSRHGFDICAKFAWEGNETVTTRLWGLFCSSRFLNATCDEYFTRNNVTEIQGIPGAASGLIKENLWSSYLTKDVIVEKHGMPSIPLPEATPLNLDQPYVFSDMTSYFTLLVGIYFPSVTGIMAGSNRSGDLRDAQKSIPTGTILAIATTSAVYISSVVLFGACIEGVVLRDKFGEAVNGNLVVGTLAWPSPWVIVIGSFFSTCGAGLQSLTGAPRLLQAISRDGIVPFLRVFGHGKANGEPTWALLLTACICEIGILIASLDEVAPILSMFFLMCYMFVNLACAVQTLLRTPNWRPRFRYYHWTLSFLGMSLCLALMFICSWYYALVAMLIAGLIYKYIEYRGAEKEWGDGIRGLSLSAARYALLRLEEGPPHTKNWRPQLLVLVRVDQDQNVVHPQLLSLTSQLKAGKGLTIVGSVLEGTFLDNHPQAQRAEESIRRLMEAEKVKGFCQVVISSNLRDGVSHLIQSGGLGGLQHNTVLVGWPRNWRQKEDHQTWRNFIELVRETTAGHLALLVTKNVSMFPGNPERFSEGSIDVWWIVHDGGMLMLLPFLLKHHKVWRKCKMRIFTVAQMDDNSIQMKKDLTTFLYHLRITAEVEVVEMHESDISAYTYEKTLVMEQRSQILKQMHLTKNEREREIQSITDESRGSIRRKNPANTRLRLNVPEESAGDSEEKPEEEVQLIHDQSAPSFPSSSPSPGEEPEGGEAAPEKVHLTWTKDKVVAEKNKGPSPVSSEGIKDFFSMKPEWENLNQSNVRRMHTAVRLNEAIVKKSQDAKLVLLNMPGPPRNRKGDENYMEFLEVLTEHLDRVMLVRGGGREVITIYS
Assay: SPR steady-state affinity on covalently immobilized KCC2
Type: binding

- Kd: 750 ± 250 nM
SMILES: Cc1csc(N(C(=O)CSc2ccc(-c3ccccc3)nn2)C2CC2)n1 [VU0463271]
